# Results as given in the Kinase Knowledgebase extract (Sharma et al. 2016).
# Target: MAPK14 (human) (UniProt Q16539)
# Test: Inhibition of MAPK14 Kinase Activtiy
# Chain of MAPK14 (human) (Q16539 whole entry, looked up): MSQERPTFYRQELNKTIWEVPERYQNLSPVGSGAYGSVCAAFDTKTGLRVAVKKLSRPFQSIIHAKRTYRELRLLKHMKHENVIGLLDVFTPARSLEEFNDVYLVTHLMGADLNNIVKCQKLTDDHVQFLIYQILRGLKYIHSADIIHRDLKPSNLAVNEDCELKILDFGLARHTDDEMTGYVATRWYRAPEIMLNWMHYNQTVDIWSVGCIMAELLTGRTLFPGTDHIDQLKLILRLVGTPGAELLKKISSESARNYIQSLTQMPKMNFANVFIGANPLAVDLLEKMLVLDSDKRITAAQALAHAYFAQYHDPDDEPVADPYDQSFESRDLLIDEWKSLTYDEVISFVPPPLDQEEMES
row,SMILES,IC50 [nM]
1,CC(C)C[C@H](NC[C@@H](O)COc1cc(-c2ccc(F)cc2Cl)c2ccc(=O)n(-c3c(F)cccc3F)c2c1)C(=O)O,< 100
2,O=C(O)[C@@H](NCCCOc1cc(-c2ccc(F)cc2Cl)c2ccc(=O)n(-c3c(Cl)cccc3Cl)c2c1)C1CCCCC1,< 100
3,CC(C)(C)OC[C@H](NCCCOc1cc(-c2ccc(F)cc2Cl)c2ccc(=O)n(-c3c(Cl)cccc3Cl)c2c1)C(=O)OC1CCCC1,< 100
4,CC(C)(C)[C@H](NCCCOc1cc(-c2ccc(F)cc2Cl)c2ccc(=O)n(-c3c(Cl)cccc3Cl)c2c1)C(=O)O,< 100
5,CC(C)C[C@H](NC1CCC(c2cc(-c3ccc(F)cc3Cl)c3c(c2)N(c2c(Cl)cccc2Cl)C(=O)CC3)CC1)C(=O)O (stereo not given in full),< 100
6,O=C(O)[C@@H](NCCCOc1cc(-c2ccc(F)cc2Cl)c2ccc(=O)n(-c3c(Cl)cccc3Cl)c2c1)c1ccccc1,< 100
7,CC(C)C[C@H](NCCCCCOc1cc(-c2ccc(F)cc2Cl)c2ccc(=O)n(-c3c(Cl)cccc3Cl)c2c1)C(=O)O,< 100
8,CC(C)C[C@H](NCCCOc1cc(-c2ccc(F)cc2Cl)c2ccc(=O)n(-c3c(F)cccc3F)c2c1)C(=O)O,< 100
9,CC(C)C[C@H](NCCCOc1cc(-c2ccc(F)cc2Cl)c2ccc(=O)n(-c3c(Cl)cccc3Cl)c2c1)C(=O)O,< 100
10,CC(C)C[C@H](NCCCOc1cc(-c2ccc(F)cc2Cl)c2ccc(=O)n(-c3c(Cl)cccc3Cl)c2c1)C(=O)OC1CCCC1,< 100
11,CC(C)C[C@H](NCCCOc1cc(-c2ccc(F)cc2Cl)c2ccc(=O)n(-c3c(Cl)cccc3Cl)c2c1)C(=O)OC(C)C,< 100
12,CC(C)C[C@H](NC[C@H](O)COc1cc(-c2ccc(F)cc2Cl)c2ccc(=O)n(-c3c(F)cccc3F)c2c1)C(=O)O,< 100
13,CC(C)C[C@H](NCCc1cc(-c2ccc(F)cc2Cl)c2ccc(=O)n(-c3c(Cl)cccc3Cl)c2c1)C(=O)O,< 100
14,CC(C)C[C@H](NCCCOc1cc(-c2ccc(F)cc2F)c2ccc(=O)n(-c3c(F)cccc3F)c2c1)C(=O)O,< 100
15,O=C(O)[C@@H](NCCCOc1cc(-c2ccc(F)cc2Cl)c2ccc(=O)n(-c3c(F)cccc3F)c2c1)c1ccccc1,< 100
16,O=C(O)[C@@H](NCCCOc1cc(-c2ccc(F)cc2Cl)c2ccc(=O)n(-c3c(F)cccc3F)c2c1)C1CCCCC1,< 100
17,CC(C)C[C@H](NCCCOc1cc(-c2ccc(F)cc2Cl)c2ccc(=O)n(-c3c(Cl)cccc3Cl)c2c1)C(=O)OC1CCN(C)CC1,< 100
18,CC(C)(C)OC[C@H](NCCCOc1cc(-c2ccc(F)cc2Cl)c2ccc(=O)n(-c3c(Cl)cccc3Cl)c2c1)C(=O)O,< 100
19,CC(C)C[C@H](NCCc1cc(-c2ccc(F)cc2Cl)c2ccc(=O)n(-c3c(F)cccc3F)c2c1)C(=O)O,< 100
20,CC(C)C[C@H](NCCCOc1cc(-c2ccc(F)cc2Cl)c2ccc(=O)n(-c3ccccc3)c2c1)C(=O)O,< 100
